Laboratory results reported in patent US5556744A, “Methods and compositions for diagnosing and treating certain HIV infected patients” (The Trustees of the University of Pennsylvania, priority 1994, dated 1996).

Tests used:
[1] = system: maternal HIV+ sera (antibodies); experiment: RIA / ELISA binding of maternal HIV+ sera to gp120 and gp41 peptides (Example 3); set-up: species or system human
How it was run: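 Peptides were coated at 10 μg/ml in carbonate buffer pH 9.6 and blocked with 1% BSA. Sera at 1:50 and 1:500 were incubated overnight at 4°C and detected with ¹²⁵I anti-human IgG (RIA) or HRP/TMB at OD450 (ELISA). Specific binding was taken as peptide minus no-peptide wells, scored as a ratio to normal human serum.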

[2] = system: maternal sera (antibodies); experiment: ELISA peptide-binding of maternal sera (Example 6); set-up: species or system human; details: for Number of Non-Transmitters which bound to peptide / Percent of Non-Transmitters which bound to peptide: N = 12; for Number of Transmitters which bound to peptide / Percent of Transmitters which bound to peptide: N = 4
Description: A total of 86 maternal sera samples obtained from patients of the Hospital of the University of Pennsylvania during the third trimester of pregnancy were used in this study 58 (67%) were non-transmitters and 28 (33%) were transmitters. This is approximately consistent with the national average (i.e. a rate of transmission between 25-30%). Transmission status was based upon serological or molecular diagnosis of children (at an age of greater than 15 months) born to these mothers. Because of the constraints on the volume of serum available for many of these samples, not all sera were analyzed with all the peptides. However, each sera sample was run with at least 40 peptides.
These peptides are of an average length of 16 amino acids and covered the entire external as well as the transmembrane glycoprotein of HIV-1. Peptide binding was analyzed by ELISA essentially as described in Example 3.
The results of one study, using some of the peptides identified above among others, is provided in Table 12, which illustrates the number and percent of non-transmitters which bound to the tested peptide. The percentage designation refers to the percentage of sera samples which bound to a particular peptide. A value of greater than 0% means that at least one of the samples bound to the particular peptides.

[3] = Serum No. 1, Non-Transmission Group
[4] = Serum No. 2, Non-Transmission Group
[5] = Serum No. 3, Non-Transmission Group
[6] = Serum No. 4, Transmission Group
[7] = Serum No. 5, Transmission Group
[8] = Serum No. 6, Non-Transmission Group
[9] = Serum No. 7, Non-Transmission Group
[10] = Serum No. 8, Non-Transmission Group
[11] = Serum No. 9, Non-Transmission Group
[12] = Serum No. 10, Transmission Group
[13] = Serum No. 11, Non-Transmission Group
[14] = Serum No. 12, Non-Transmission Group
[15] = Serum No. 13, Transmission Group
[16] = Serum No. 14, Transmission Group
[17] = Serum No. 15, Transmission Group
[18] = Serum No. 16, Non-Transmission Group
[19] = Serum No. 17, Non-Transmission Group
[20] = Serum No. 18, Non-Transmission Group
[21] = Serum No. 19, Transmission Group
[22] = Serum No. 20, Non-Transmission Group

QNNLLRAIEAQQHLLQLTVWGI [Peptide 35]
Binding of maternal HIV+ serum to peptide (sera/NHS ratio) [1, 3]: - (specific OD450 or cpm of sera sample binding to peptide divided by the specific OD450 or cpm of NHS sample binding to peptide, which value is less than 2)
Binding of maternal HIV+ serum to peptide (sera/NHS ratio) [1, 4]: - (specific OD450 or cpm of sera sample binding to peptide divided by the specific OD450 or cpm of NHS sample binding to peptide, which value is less than 2)
Binding of maternal HIV+ serum to peptide (sera/NHS ratio) [1, 5]: + (which value is between 2 to 3)
Binding of maternal HIV+ serum to peptide (sera/NHS ratio) [1, 6]: - (specific OD450 or cpm of sera sample binding to peptide divided by the specific OD450 or cpm of NHS sample binding to peptide, which value is less than 2)
Binding of maternal HIV+ serum to peptide (sera/NHS ratio) [1, 7]: - (specific OD450 or cpm of sera sample binding to peptide divided by the specific OD450 or cpm of NHS sample binding to peptide, which value is less than 2)
Binding of maternal HIV+ serum to peptide (sera/NHS ratio) [1, 8]: - (specific OD450 or cpm of sera sample binding to peptide divided by the specific OD450 or cpm of NHS sample binding to peptide, which value is less than 2)
Binding of maternal HIV+ serum to peptide (sera/NHS ratio) [1, 9]: + (which value is between 2 to 3)
Binding of maternal HIV+ serum to peptide (sera/NHS ratio) [1, 10]: - (specific OD450 or cpm of sera sample binding to peptide divided by the specific OD450 or cpm of NHS sample binding to peptide, which value is less than 2)
Binding of maternal HIV+ serum to peptide (sera/NHS ratio) [1, 11]: - (specific OD450 or cpm of sera sample binding to peptide divided by the specific OD450 or cpm of NHS sample binding to peptide, which value is less than 2)
Binding of maternal HIV+ serum to peptide (sera/NHS ratio) [1, 12]: - (specific OD450 or cpm of sera sample binding to peptide divided by the specific OD450 or cpm of NHS sample binding to peptide, which value is less than 2)
Binding of maternal HIV+ serum to peptide (sera/NHS ratio) [1, 13]: - (specific OD450 or cpm of sera sample binding to peptide divided by the specific OD450 or cpm of NHS sample binding to peptide, which value is less than 2)
Binding of maternal HIV+ serum to peptide (sera/NHS ratio) [1, 14]: - (specific OD450 or cpm of sera sample binding to peptide divided by the specific OD450 or cpm of NHS sample binding to peptide, which value is less than 2)
Binding of maternal HIV+ serum to peptide (sera/NHS ratio) [1, 15]: - (specific OD450 or cpm of sera sample binding to peptide divided by the specific OD450 or cpm of NHS sample binding to peptide, which value is less than 2)
Binding of maternal HIV+ serum to peptide (sera/NHS ratio) [1, 16]: - (specific OD450 or cpm of sera sample binding to peptide divided by the specific OD450 or cpm of NHS sample binding to peptide, which value is less than 2)
Binding of maternal HIV+ serum to peptide (sera/NHS ratio) [1, 17]: - (specific OD450 or cpm of sera sample binding to peptide divided by the specific OD450 or cpm of NHS sample binding to peptide, which value is less than 2)
Binding of maternal HIV+ serum to peptide (sera/NHS ratio) [1, 18]: - (specific OD450 or cpm of sera sample binding to peptide divided by the specific OD450 or cpm of NHS sample binding to peptide, which value is less than 2)
Binding of maternal HIV+ serum to peptide (sera/NHS ratio) [1, 19]: - (specific OD450 or cpm of sera sample binding to peptide divided by the specific OD450 or cpm of NHS sample binding to peptide, which value is less than 2)
Binding of maternal HIV+ serum to peptide (sera/NHS ratio) [1, 20]: - (specific OD450 or cpm of sera sample binding to peptide divided by the specific OD450 or cpm of NHS sample binding to peptide, which value is less than 2)
Binding of maternal HIV+ serum to peptide (sera/NHS ratio) [1, 21]: - (specific OD450 or cpm of sera sample binding to peptide divided by the specific OD450 or cpm of NHS sample binding to peptide, which value is less than 2)
Binding of maternal HIV+ serum to peptide (sera/NHS ratio) [1, 22]: - (specific OD450 or cpm of sera sample binding to peptide divided by the specific OD450 or cpm of NHS sample binding to peptide, which value is less than 2)
Number of Non-Transmitters which bound to peptide [2]: 0
Percent of Non-Transmitters which bound to peptide [2]: 0%
Number of Transmitters which bound to peptide [2]: 0
Percent of Transmitters which bound to peptide [2]: 0%

VSLKCTDLKNDTNTN [Peptide 97]
Binding of maternal sera to peptide (in words) ([1]; Example 3): No binding
Binding of maternal HIV+ serum to peptide (sera/NHS ratio) [1, 3]: - (specific OD450 or cpm of sera sample binding to peptide divided by the specific OD450 or cpm of NHS sample binding to peptide, which value is less than 2)
Binding of maternal HIV+ serum to peptide (sera/NHS ratio) [1, 4]: - (specific OD450 or cpm of sera sample binding to peptide divided by the specific OD450 or cpm of NHS sample binding to peptide, which value is less than 2)
Binding of maternal HIV+ serum to peptide (sera/NHS ratio) [1, 5]: - (specific OD450 or cpm of sera sample binding to peptide divided by the specific OD450 or cpm of NHS sample binding to peptide, which value is less than 2)
Binding of maternal HIV+ serum to peptide (sera/NHS ratio) [1, 6]: - (specific OD450 or cpm of sera sample binding to peptide divided by the specific OD450 or cpm of NHS sample binding to peptide, which value is less than 2)
Binding of maternal HIV+ serum to peptide (sera/NHS ratio) [1, 7]: - (specific OD450 or cpm of sera sample binding to peptide divided by the specific OD450 or cpm of NHS sample binding to peptide, which value is less than 2)
Binding of maternal HIV+ serum to peptide (sera/NHS ratio) [1, 8]: - (specific OD450 or cpm of sera sample binding to peptide divided by the specific OD450 or cpm of NHS sample binding to peptide, which value is less than 2)
Binding of maternal HIV+ serum to peptide (sera/NHS ratio) [1, 9]: - (specific OD450 or cpm of sera sample binding to peptide divided by the specific OD450 or cpm of NHS sample binding to peptide, which value is less than 2)
Binding of maternal HIV+ serum to peptide (sera/NHS ratio) [1, 10]: - (specific OD450 or cpm of sera sample binding to peptide divided by the specific OD450 or cpm of NHS sample binding to peptide, which value is less than 2)
Binding of maternal HIV+ serum to peptide (sera/NHS ratio) [1, 11]: - (specific OD450 or cpm of sera sample binding to peptide divided by the specific OD450 or cpm of NHS sample binding to peptide, which value is less than 2)
Binding of maternal HIV+ serum to peptide (sera/NHS ratio) [1, 12]: - (specific OD450 or cpm of sera sample binding to peptide divided by the specific OD450 or cpm of NHS sample binding to peptide, which value is less than 2)
Binding of maternal HIV+ serum to peptide (sera/NHS ratio) [1, 13]: - (specific OD450 or cpm of sera sample binding to peptide divided by the specific OD450 or cpm of NHS sample binding to peptide, which value is less than 2)
Binding of maternal HIV+ serum to peptide (sera/NHS ratio) [1, 14]: - (specific OD450 or cpm of sera sample binding to peptide divided by the specific OD450 or cpm of NHS sample binding to peptide, which value is less than 2)
Binding of maternal HIV+ serum to peptide (sera/NHS ratio) [1, 15]: - (specific OD450 or cpm of sera sample binding to peptide divided by the specific OD450 or cpm of NHS sample binding to peptide, which value is less than 2)
Binding of maternal HIV+ serum to peptide (sera/NHS ratio) [1, 16]: - (specific OD450 or cpm of sera sample binding to peptide divided by the specific OD450 or cpm of NHS sample binding to peptide, which value is less than 2)
Binding of maternal HIV+ serum to peptide (sera/NHS ratio) [1, 17]: - (specific OD450 or cpm of sera sample binding to peptide divided by the specific OD450 or cpm of NHS sample binding to peptide, which value is less than 2)
Binding of maternal HIV+ serum to peptide (sera/NHS ratio) [1, 18]: - (specific OD450 or cpm of sera sample binding to peptide divided by the specific OD450 or cpm of NHS sample binding to peptide, which value is less than 2)
Binding of maternal HIV+ serum to peptide (sera/NHS ratio) [1, 19]: - (specific OD450 or cpm of sera sample binding to peptide divided by the specific OD450 or cpm of NHS sample binding to peptide, which value is less than 2)
Binding of maternal HIV+ serum to peptide (sera/NHS ratio) [1, 20]: - (specific OD450 or cpm of sera sample binding to peptide divided by the specific OD450 or cpm of NHS sample binding to peptide, which value is less than 2)
Binding of maternal HIV+ serum to peptide (sera/NHS ratio) [1, 21]: - (specific OD450 or cpm of sera sample binding to peptide divided by the specific OD450 or cpm of NHS sample binding to peptide, which value is less than 2)
Binding of maternal HIV+ serum to peptide (sera/NHS ratio) [1, 22]: - (specific OD450 or cpm of sera sample binding to peptide divided by the specific OD450 or cpm of NHS sample binding to peptide, which value is less than 2)
Number of Non-Transmitters which bound to peptide [2]: 2
Percent of Non-Transmitters which bound to peptide [2]: 16.7%
Number of Transmitters which bound to peptide [2]: 0
Percent of Transmitters which bound to peptide [2]: 0%

A405: gp120 peptide, amino acids 405-423, HIV strain Z3, SEQ ID NO: 130 (TGNITLPCRIKQVVRTWQG) [Peptide A405]
Number of Non-Transmitters which bound to peptide [2]: 1
Percent of Non-Transmitters which bound to peptide [2]: 8.3%
Number of Transmitters which bound to peptide [2]: 0
Percent of Transmitters which bound to peptide [2]: 0%

p41-20: gp41 peptide, amino acids 644-663, HIV strain IIIB, SEQ ID NO: 154 (SLIEESQNQQEKNEQELLEL)
Number of Non-Transmitters which bound to peptide [2]: 2
Percent of Non-Transmitters which bound to peptide [2]: 16.7%
Number of Transmitters which bound to peptide [2]: 0
Percent of Transmitters which bound to peptide [2]: 0%

A6939: gp120 peptide, amino acids 210-227, SEQ ID NO:108 (FEPIPIHYCAPAGFAILK) [Peptide A6939]
Number of Non-Transmitters which bound to peptide [2]: 0
Percent of Non-Transmitters which bound to peptide [2]: 0%
Number of Transmitters which bound to peptide [2]: 0
Percent of Transmitters which bound to peptide [2]: 0%
